From patent US12268665B2, “Combination of immunotherapies with MDM2 inhibitors” (ASCENTAGE PHARMA (SUZHOU) CO., LTD., priority 2018, dated 2025)

Columns and labels:
[1] = tested on: MH-22A syngeneic tumor model; experiment: Efficacy in the TIL analysis study, MH-22A model (d7); assay type: in vivo, mouse; settings: APG-115 10 mg/kg p.o. q2d; anti-PD-1 5 mg/kg i.p. biw; epacadostat 100 mg/kg p.o. bid; × 6 d
Experimental: (§1) Each mouse was inoculated subcutaneously at the right flank region with MH-22A tumor cells (5×10^6) in 0.2 mL of PBS for tumor development. The treatments were started when the mean tumor size reached 60 mm^3. The test articles were administered to the tumor-bearing mice according to the regimen shown in the experimental design Table 6. The day of start dosing was defined as d1.
Mice bearing MH-22A murine hepatoma tumors were treated with various agent(s) under different regimens as indicated. Isotype control antibody was included in the control.

[2] = tested on: CD4+ T cells isolated from mouse spleens; experiment: Activation of CD4+ T cells by APG-115 (flow cytometry); assay type: cell-based
Experimental: Effector T cells play a critical role in antitumor immunity. To investigate whether APG-115 influenced T cell function, CD4^+ T cells isolated from mouse spleens were exposed to APG-115 or solvent control DMSO.
Specifically, CD4^+ T cells were positively selected from mouse spleens using magnetic beads and stimulated with 5 μg/ml plate-bound anti-CD3 and 2 μg/ml anti-CD28 in the presence of APG-115 (250 nM) or DMSO for 24 h (Day 1) or 48 h (Day 2). The percentages of CD25-expressing and CD62L-expressing populations (top panel), and FSC (lower panel) were determined by flow cytometry.

[3] = tested on: serum MIC-1 (PD marker of TP53 activation); experiment: Phase I study APG-115-US-001: pharmacodynamics; assay type: in vivo, human; settings: within the dose range tested
Excerpt: This Phase I study (APG-115-US-001) was designed to assess safety, toxicity, pharmacokinetics (PK), pharmacodynamics (PD), and antitumor activity of APG-115 orally in patients with advanced solid tumors in US (NCT02935907).

[4] = tested on: serum MIC-1 (PD marker of TP53 activation); experiment: Phase I study CTR20170975: pharmacodynamics; assay type: in vivo, human
Experimental: (§2) Patients with advanced soft tissue sarcoma (STS), adenoid cystic carcinoma (ACC) or other solid tumors in China (CTR20170975) were treated with APG-115. In dose escalation, patients received APG-115 (100-200 mg) orally QOD for first 21 days of a 28-day cycle, until disease progression. Study objectives include safety (primary endpoint), pharmacokinetics (PK), pharmacodynamics (PD), and antitumor activity assessed every 8 weeks.
(§3) This is a Phase I study (CTR20170975) is designed to assess the safety, dose-limiting toxicities (DLT), the maximum tolerated dose (MTD)/recommended phase 2 dose (RP2D), pharmacokinetics (PK), pharmacodynamics (PD) profile and anti-tumor activity of orally administered APG-115 in Chinese patients with advanced soft tissue sarcoma and other solid tumors.

[5] = tested on: Trp53 mutant MC38 syngeneic murine colon tumor; experiment: In vivo efficacy study in MC38 model; set-up: species or system mouse; settings: for T/C (%) d17 / RTV (Mean ± SEM) d17: anti-PD-1 5 mg/kg i.p. biw; for RTV (Mean ± SEM) d17: C57BL/6 mice
Experimental: as §1, with “MC38” for “MH-22A”, “(5×10^5)” for “(5×10^6)”, “0.1” for “0.2”, “initiated” for “started”, “˜63” for “60”, “10.” for “6.”
Efficacy of combination treatment with APG-115 plus anti-PD-1 antibody was further evaluated in a Trp53 mutant MC38 syngeneic mouse tumor model on a C57BL/6 background.

[6] = Phase I study CTR20170975 in Chinese patients: safety; assay type: in vivo, human
Experimental: as §2, §3
Single dose escalation study was conducted. A standard “3+3” design was employed to determine the maximum tolerated dose (MTD) of APG-115 by assessing the dose limiting toxicity (DLT) of APG-115. Three dose levels of APG-115 was tested: 100, 150, 200 mg. APG-115 was administrated orally every other day (QOD) for a consecutive 3 weeks (i.e. dosed at Day 1, 3, 5, 7, 9, 11, 13, 15, 17, 19, and 21), with one week dosing off as 4-weeks a cycle. […] The scheme of the trial design is provided below.
This study was conducted with an initial dosage of […], according to the preliminary safety results in phase I study of APG-115 in the US.

[7] = tested on: stimulated mouse splenocytes; experiment: Cytokine production in stimulated mouse splenocytes (MSD V-PLEX); assay type: cell-based; settings: 250 nM, 24 h
Experimental: The effect of APG-115 on cytokine production in stimulated mouse splenocytes was investigated. Mouse splenocytes freshly isolated from mice were stimulated with 5 μg/ml plate-bound anti-CD3 and 2 μg/ml anti-CD28 in the presence of APG-115 (250 nM) or DMSO for 24 h. After the treatment, supernatants were collected from the cell cultures and then cytokines were measured by MSD V-PLEX kit which enabled to test 10 cytokines.

[8] = 250 nM, anti-CD3/anti-CD28 stimulated, 24 h or 48 h

## CCN1[C@@H](C(=O)NC23CCC(C(=O)O)(CC2)CC3)[C@H](c2cccc(Cl)c2F)[C@]2(C(=O)Nc3cc(Cl)ccc32)C12CCCCC2 [APG-115]
[1]
  RTV (Mean) d7: 12.8
  T/C (%) d7: 83%
[2]; 250 nM of APG-115
  caspase 3 cleavage in T cells: not detected
[2]; [8]
  CD25^highCD62L^low cell populations: rapid increase
  cell size of stimulated CD4+ T cells (FSC): increase in cell size
[3]
  Serum MIC-1 increase: exposure dependent
[4]; APG-115 doses ≥100 mg, preliminary
  serum MIC-1 levels: elevated from individual baseline
[4]; within the dose range tested (Example 5)
  MIC-1 increase: exposure dependent
[4]; within the dose range tested (Example 8)
  Serum MIC-1 increase: exposure dependent
[5]; APG-115 10 mg/kg p.o. q2d
  T/C (%) d17: 73%
  RTV (Mean ± SEM) d17: 15.3 ± 2.7
[5]; APG-115 50 mg/kg p.o. q2d
  T/C (%) d17: 94%
  RTV (Mean ± SEM) d17: 19.8 ± 2.2
[5]; APG-115 10 and 50 mg/kg
  antitumor activity as single agent: minimal antitumor activity
[6]; QOD, 21 days on 7 days off
  MTD: 150 mg
[6]; human, in vivo
  Adverse Event: Abdominal distension: 2 (14.3%)
  Adverse Event: Abdominal pain: 2 (14.3%)
  Adverse Event: Anaemia: 11 (78.6%)
  Adverse Event: Any AE: 14 (100.0%)
  Adverse Event: Asthenia: 2 (14.3%)
  Adverse Event: Blood alkaline phosphatase increased: 2 (14.3%)
  Adverse Event: Blood creatinine increased: 2 (14.3%)
  Adverse Event: Cancer pain: 2 (14.3%)
  Adverse Event: Decreased appetite: 2 (14.3%)
  Adverse Event: Febrile neutropenia: 2 (14.3%)
  Adverse Event: Gamma-glutamyltransferase increased: 4 (28.6%)
  Adverse Event: Headache: 2 (14.3%)
  Adverse Event: Hypercholesterolaemia: 8 (57.1%)
  Adverse Event: Hypertriglyceridaemia: 5 (35.7%)
  Adverse Event: Hyperuricaemia: 3 (21.4%)
  Adverse Event: Hypoalbuminaemia: 7 (50.0%)
  Adverse Event: Hypokalaemia: 3 (21.4%)
  Adverse Event: Insomnia: 2 (14.3%)
  Adverse Event: Low density lipoprotein increased: 2 (14.3%)
  Adverse Event: Nausea: 5 (35.7%)
  Adverse Event: Neutrophil count decreased: 5 (35.7%)
  Adverse Event: Oedemaperipheral: 3 (21.4%)
  Adverse Event: Platelet count decreased: 9 (64.3%)
  Adverse Event: Vomiting: 8 (57.1%)
  Adverse Event: White blood cell count decreased: 7 (50.0%)
  Grade 3 Adverse Event: Anaemia: 5 (35.7%)
  Grade 3 Adverse Event: Any AE: 10 (71.4%)
  Grade 3 Adverse Event: Blood creatinine increased: 1 (7.1%)
  Grade 3 Adverse Event: Dyspnoea: 1 (7.1%)
  Grade 3 Adverse Event: Febrile neutropenia: 2 (14.3%)
  Grade 3 Adverse Event: Lipase increased: 1 (7.1%)
  Grade 3 Adverse Event: Neutrophil count decreased: 4 (28.6%)
  Grade 3 Adverse Event: Platelet count decreased: 6 (42.9%)
  Grade 3 Adverse Event: Pulmonary embolism: 1 (7.1%)
  Grade 3 Adverse Event: Ureteric obstruction: 1 (7.1%)
  Grade 3 Adverse Event: Vomiting: 2 (14.3%)
  Grade 3 Adverse Event: White blood cell count decreased: 4 (28.6%)
  Grade 3 or 4 TRAE: anaemia: 38.5%
  Grade 3 or 4 TRAE: leukopenia: 30.8%
  Grade 3 or 4 TRAE: neutropenia: 23.1%
  Grade 3 or 4 TRAE: thrombocytopenia: 38.5%
  RP2D: 100 mg
  SAE, % of pts: 54%
  SAE, pts: 7 pts
  most common Grade 3 or 4 AEs: hematologic toxicities, particularly thrombocytopenia
[7]
  expression levels of IL-1β, IL-5, KC/GRO, IL-12p70: below detection limit
[7]; anti-CD3/anti-CD28 stimulated
  inflammatory cytokines including IFN-γ, IL-2, TNF-α, IL-10 and IL-4: upregulation
